# Tested on: MV-4-11 cells
# Experiment: Gene expression microarray analysis (Affymetrix PrimeView) and GSEA
# Format: cell-based, human
# Set-up: RFU PODN (11730768_x_at) / Fold change /veh PODN (11730768_x_at) / RFU LINC00158 (11744669_a_at) / Fold change /veh LINC00158 (11744669_a_at) / RFU DUSP10 (11751237_a_at) / Fold change /veh DUSP10 (11751237_a_at) / RFU ID3 (11757404_x_at) / Fold change /veh ID3 (11757404_x_at) / RFU PLEKHG5 (11737974_s_at) / Fold change /veh PLEKHG5 (11737974_s_at) / RFU LRRC4B (11730491_at) / Fold change /veh LRRC4B (11730491_at) / RFU GIMAP4 (11747438_a_at) / Fold change /veh GIMAP4 (11747438_a_at) / RFU KRT8 (11758183_x_at) / Fold change /veh KRT8 (11758183_x_at) / RFU CNN1 (11734310_a_at) / Fold change /veh CNN1 (11734310_a_at) / RFU VPS37D (11726825_at) / Fold change /veh VPS37D (11726825_at) / RFU C10orf10 (11716522_x_at) / Fold change /veh C10orf10 (11716522_x_at) / RFU KIR2DL2 /// KIR2DL4 /// KIR2DL5A /// KIR2DL5B /// KIR2DS1 /// KIR2DS2 /// KIR2DS3 /// KIR2DS4 /// KIR3DL3 /// KIR3DL3 /// KIR3DS1 (11738374_at) / Fold change /veh KIR2DL2 /// KIR2DL4 /// KIR2DL5A /// KIR2DL5B /// KIR2DS1 /// KIR2DS2 /// KIR2DS3 /// KIR2DS4 /// KIR3DL3 /// KIR3DL3 /// KIR3DS1 (11738374_at) / RFU C1QL1 (11718748_at) / Fold change /veh C1QL1 (11718748_at) / RFU TMPRSS4 (11747572_a_at) / Fold change /veh TMPRSS4 (11747572_a_at) / RFU HAMP (11756126_x_at) / Fold change /veh HAMP (11756126_x_at) / RFU RNFT2 (11725882_a_at) / Fold change /veh RNFT2 (11725882_a_at) / RFU NR4A2 (11747474_a_at) / Fold change /veh NR4A2 (11747474_a_at) / RFU ABCC12 (11746883_a_at) / Fold change /veh ABCC12 (11746883_a_at) / RFU TMEM136 (11760407_x_at) / Fold change /veh TMEM136 (11760407_x_at) / RFU CLDN22 /// WWC2 (11732394_at) / Fold change /veh CLDN22 /// WWC2 (11732394_at) / RFU HLA-DPB1 (11760878_x_at) / Fold change /veh HLA-DPB1 (11760878_x_at) / RFU SPINT1 (11716480_a_at) / Fold change /veh SPINT1 (11716480_a_at) / RFU GAP43 (11754022_s_at) / Fold change /veh GAP43 (11754022_s_at) / RFU A4GNT (11735810_at) / Fold change /veh A4GNT (11735810_at) / RFU PRB3 (11715151_x_at) / Fold change /veh PRB3 (11715151_x_at) / RFU TUBB4B (11761932_at) / Fold change /veh TUBB4B (11761932_at) / RFU CAPN14 (11732068_a_at) / Fold change /veh CAPN14 (11732068_a_at) / RFU TMCC2 (11721928_a_at) / Fold change /veh TMCC2 (11721928_a_at) / RFU IRGQ (11745062_a_at) / Fold change /veh IRGQ (11745062_a_at) / RFU FAM174B (11720279_a_at) / Fold change /veh FAM174B (11720279_a_at) / RFU TMPRSS4 (11748680_a_at) / Fold change /veh TMPRSS4 (11748680_a_at) / RFU FAM212B (11763350_a_at) / Fold change /veh FAM212B (11763350_a_at) / RFU PLEKHG5 (11743358_a_at) / Fold change /veh PLEKHG5 (11743358_a_at) / RFU ZSCAN30 (11745921_a_at) / Fold change /veh ZSCAN30 (11745921_a_at) / RFU CMKLR1 (11741424_a_at) / Fold change /veh CMKLR1 (11741424_a_at) / RFU LOC101060620 /// MAPK8IP1 (11723275_at) / Fold change /veh LOC101060620 /// MAPK8IP1 (11723275_at) / RFU SPTSSB (11747773_x_at) / Fold change /veh SPTSSB (11747773_x_at) / RFU PRSS12 (11739890_at) / Fold change /veh PRSS12 (11739890_at) / RFU BIN1 (11741810_x_at) / Fold change /veh BIN1 (11741810_x_at) / RFU WNT11 (11732464_a_at) / Fold change /veh WNT11 (11732464_a_at) / RFU C10orf10 (11716521_a_at) / Fold change /veh C10orf10 (11716521_a_at) / RFU C5orf56 (11738089_at) / Fold change /veh C5orf56 (11738089_at) / RFU CYB561 (11721691_x_at) / Fold change /veh CYB561 (11721691_x_at) / RFU ANKRD19P (11752326_a_at) / Fold change /veh ANKRD19P (11752326_a_at) / RFU OR2T12 /// OR2T33 /// OR2T8 (11738714_s_at) / Fold change /veh OR2T12 /// OR2T33 /// OR2T8 (11738714_s_at) / RFU VCAN (11748164_a_at) / Fold change /veh VCAN (11748164_a_at) / RFU JSRP1 (11732532_at) / Fold change /veh JSRP1 (11732532_at) / RFU KRTAP10-11 (11738290_x_at) / Fold change /veh KRTAP10-11 (11738290_x_at) / RFU MYO3A (11730013_a_at) / Fold change /veh MYO3A (11730013_a_at) / RFU EBF3 (11725865_a_at) / Fold change /veh EBF3 (11725865_a_at) / RFU CAMK2N1 (11719241_x_at) / Fold change /veh CAMK2N1 (11719241_x_at) / RFU C5orf56 (11738088_a_at) / Fold change /veh C5orf56 (11738088_a_at) / RFU OLFML3 (11715873_a_at) / Fold change /veh OLFML3 (11715873_a_at) / RFU LOC100653217 /// NTM (11731650_a_at) / Fold change /veh LOC100653217 /// NTM (11731650_a_at) / RFU MAPK11 (11762145_a_at) / Fold change /veh MAPK11 (11762145_a_at) / RFU FIZ1 (11724087_x_at) / Fold change /veh FIZ1 (11724087_x_at) / RFU OASL (11726364_x_at) / Fold change /veh OASL (11726364_x_at) / RFU SOX15 (11748057_x_at) / Fold change /veh SOX15 (11748057_x_at) / RFU CD79A (11719716_a_at) / Fold change /veh CD79A (11719716_a_at) / RFU HIST1H1D (11736915_at) / Fold change /veh HIST1H1D (11736915_at) / RFU CASKIN2 (11723855_a_at) / Fold change /veh CASKIN2 (11723855_a_at) / RFU LOC730098 (11760151_x_at) / Fold change /veh LOC730098 (11760151_x_at) / RFU OR4N2 (11742367_at) / Fold change /veh OR4N2 (11742367_at) / RFU PRRT2 (11749266_a_at) / Fold change /veh PRRT2 (11749266_a_at) / RFU SNX32 (11753110_a_at) / Fold change /veh SNX32 (11753110_a_at) / RFU CDHR5 (11726645_a_at) / Fold change /veh CDHR5 (11726645_a_at) / RFU RCAN1 (11760418_a_at) / Fold change /veh RCAN1 (11760418_a_at) / RFU FAM167A (11723789_a_at) / Fold change /veh FAM167A (11723789_a_at) / RFU FAM26E (11764081_at) / Fold change /veh FAM26E (11764081_at) / RFU ISYNA1 (11749810_s_at) / Fold change /veh ISYNA1 (11749810_s_at) / RFU ACY1 (11761880_at) / Fold change /veh ACY1 (11761880_at) / RFU 11764098_at / Fold change /veh 11764098_at / RFU SAMD14 (11745864_x_at) / Fold change /veh SAMD14 (11745864_x_at) / RFU NPB (11741838_a_at) / Fold change /veh NPB (11741838_a_at) / RFU TMPRSS6 (11731388_a_at) / Fold change /veh TMPRSS6 (11731388_a_at) / RFU KRTAP10-2 (11738614_at) / Fold change /veh KRTAP10-2 (11738614_at) / RFU ARHGAP8 /// PRR5-ARHGAP8 (11727945_x_at) / Fold change /veh ARHGAP8 /// PRR5-ARHGAP8 (11727945_x_at) / RFU KRTAP5-7 /// NADSYN1 (11734609_at) / Fold change /veh KRTAP5-7 /// NADSYN1 (11734609_at) / RFU RASL12 (11751679_a_at) / Fold change /veh RASL12 (11751679_a_at) / RFU CDKN2B (11736163_a_at) / Fold change /veh CDKN2B (11736163_a_at) / RFU PRF1 (11729649_at) / Fold change /veh PRF1 (11729649_at) / RFU, ZNF638 /// ZNF638-IT1 / Fold change vs veh, ZNF638 /// ZNF638-IT1 / RFU, PANK3 / Fold change vs veh, PANK3 / RFU, SH3YL1 / Fold change vs veh, SH3YL1 / RFU, ZEB2 / Fold change vs veh, ZEB2 / RFU, NRIP1 / Fold change vs veh, NRIP1 / RFU, PTTG1IP / Fold change vs veh, PTTG1IP / RFU, CAPN2 / Fold change vs veh, CAPN2 / RFU, MED14 / Fold change vs veh, MED14 / RFU, SNORA58 / Fold change vs veh, SNORA58 / RFU, C1orf63 / Fold change vs veh, C1orf63 / RFU, LRRFIP1 / Fold change vs veh, LRRFIP1 / RFU, NDUFAF7 / Fold change vs veh, NDUFAF7 / RFU, SLC12A2 / Fold change vs veh, SLC12A2 / RFU, IBTK / Fold change vs veh, IBTK / RFU, ESF1 / Fold change vs veh, ESF1 / Fold change vs veh, TMEM50B / RFU, TAOK1 / Fold change vs veh, TAOK1 / RFU, ACBD3 / Fold change vs veh, ACBD3 / RFU, TMA16 / Fold change vs veh, TMA16 / RFU, RWDD3 / Fold change vs veh, RWDD3 / RFU, BCAT1 / Fold change vs veh, BCAT1 / RFU, EDEM3 / Fold change vs veh, EDEM3 / RFU, TMEM33 / Fold change vs veh, TMEM33 / RFU, WDR75 / Fold change vs veh, WDR75 / RFU, AHCTF1 / Fold change vs veh, AHCTF1 / RFU, TFRC / Fold change vs veh, TFRC / RFU, ZDHHC17 / Fold change vs veh, ZDHHC17 / RFU, NOM1 / Fold change vs veh, NOM1 / RFU, ARL8B / Fold change vs veh, ARL8B / RFU, ZBTB11 / Fold change vs veh, ZBTB11 / RFU, TAMM41 / Fold change vs veh, TAMM41 / RFU, KIAA1704 /// LOC100996395 / Fold change vs veh, KIAA1704 /// LOC100996395 / RFU, ING1 / Fold change vs veh, ING1 / RFU, TRMT61B / Fold change vs veh, TRMT61B / RFU, FUBP3 / Fold change vs veh, FUBP3 / RFU, TP53 / Fold change vs veh, TP53 / RFU, TNKS2 / Fold change vs veh, TNKS2 / RFU, ZFP14 / Fold change vs veh, ZFP14 / RFU, ACTR2 / Fold change vs veh, ACTR2 / RFU, PPP3R1 / Fold change vs veh, PPP3R1 / RFU, PIK3R1 / Fold change vs veh, PIK3R1 / RFU, HNRNPA1 / Fold change vs veh, HNRNPA1 / RFU, RNF170 / Fold change vs veh, RNF170 / RFU, ZNF28 / Fold change vs veh, ZNF28 / RFU, RNGTT / Fold change vs veh, RNGTT / RFU, OGT / Fold change vs veh, OGT / RFU, BRD1 / Fold change vs veh, BRD1 / RFU, MARS / Fold change vs veh, MARS / RFU, ZNF655 / Fold change vs veh, ZNF655 / RFU, FAHD1 / Fold change vs veh, FAHD1 / RFU, BDP1 / Fold change vs veh, BDP1 / RFU, LRRCC1 / Fold change vs veh, LRRCC1 / RFU, ARID1A / Fold change vs veh, ARID1A / RFU, ZNF146 / Fold change vs veh, ZNF146 / RFU, ZNF330 / Fold change vs veh, ZNF330 / RFU, GPN3 / Fold change vs veh, GPN3 / RFU, C9orf123 / Fold change vs veh, C9orf123 / RFU, N4BP2L2 / Fold change vs veh, N4BP2L2 / RFU, ARFIP1 / Fold change vs veh, ARFIP1 / RFU, FAM179B / Fold change vs veh, FAM179B / RFU, BCL10 / Fold change vs veh, BCL10 / RFU, UHRF1BP1L / Fold change vs veh, UHRF1BP1L / RFU, BET1 / Fold change vs veh, BET1 / RFU, CNOT2 / Fold change vs veh, CNOT2 / RFU, ZNF268 / Fold change vs veh, ZNF268 / Fold change vs veh, ZNF507 / RFU, DGCR2 / Fold change vs veh, DGCR2 / RFU, WDSUB1 / Fold change vs veh, WDSUB1 / Fold change vs veh, HSP90B1 /// MIR3652 / RFU, ADSS / Fold change vs veh, ADSS / RFU, GK / Fold change vs veh, GK / RFU, ZNF148 / Fold change vs veh, ZNF148 / RFU, TAF9 / Fold change vs veh, TAF9 / RFU, SLC1A5 / Fold change vs veh, SLC1A5 / RFU, SLMO2 / Fold change vs veh, SLMO2 / RFU, ABCC4 / Fold change vs veh, ABCC4 / RFU, LOC101060439 /// RAP1B / Fold change vs veh, LOC101060439 /// RAP1B / RFU, RFX7 / Fold change vs veh, RFX7 / RFU, GTPBP10 / Fold change vs veh, GTPBP10 / RFU, CNEP1R1 / Fold change vs veh, CNEP1R1 / RFU, BIVM-ERCC5 /// ERCC5 / Fold change vs veh, BIVM-ERCC5 /// ERCC5 / RFU, ILF3 / Fold change vs veh, ILF3 / RFU 11762660_at / Fold change /veh 11762660_at / RFU VCAN (11757783_s_at) / Fold change /veh VCAN (11757783_s_at) / RFU DDX43 (11728927_at) / Fold change /veh DDX43 (11728927_at) / RFU KRT8 (11758188_x_at) / Fold change /veh KRT8 (11758188_x_at) / RFU NKD1 (11759106_at) / Fold change /veh NKD1 (11759106_at) / RFU SRD5A1 (11742802_a_at) / Fold change /veh SRD5A1 (11742802_a_at) / RFU TPSAB1 /// TPSB2 (11721975_s_at) / Fold change /veh TPSAB1 /// TPSB2 (11721975_s_at) / RFU GSTM3 (11746129_a_at) / Fold change /veh GSTM3 (11746129_a_at) / RFU IL23R (11737362_x_at) / Fold change /veh IL23R (11737362_x_at) / RFU TMEM51 (11727254_a_at) / Fold change /veh TMEM51 (11727254_a_at) / RFU PIWIL2 (11732686_x_at) / Fold change /veh PIWIL2 (11732686_x_at) / RFU ORM1 (11744905_x_at) / Fold change /veh ORM1 (11744905_x_at) / RFU CCDC152 (11743942_at) / Fold change /veh CCDC152 (11743942_at) / RFU ECM1 (11717891_a_at) / Fold change /veh ECM1 (11717891_a_at) / RFU IL23R (11748794_a_at) / Fold change /veh IL23R (11748794_a_at) / RFU TNFAIP8L3 (11732012_x_at) / Fold change /veh TNFAIP8L3 (11732012_x_at) / RFU MBOAT4 (11741988_at) / Fold change /veh MBOAT4 (11741988_at) / RFU 11764193_at / Fold change /veh 11764193_at / RFU TMEM53 (11763286_at) / Fold change /veh TMEM53 (11763286_at) / RFU MAGEB2 (11727129_at) / Fold change /veh MAGEB2 (11727129_at) / RFU TMEM200A (11744735_a_at) / Fold change /veh TMEM200A (11744735_a_at) / RFU CCDC152 (11751479_a_at) / Fold change /veh CCDC152 (11751479_a_at) / RFU FAM211A (11726209_a_at) / Fold change /veh FAM211A (11726209_a_at) / RFU RGS16 (11746705_a_at) / Fold change /veh RGS16 (11746705_a_at) / RFU VCAN (11755009_s_at) / Fold change /veh VCAN (11755009_s_at) / RFU RHOB (11743442_s_at) / Fold change /veh RHOB (11743442_s_at) / RFU RGS16 (11720943_a_at) / Fold change /veh RGS16 (11720943_a_at) / RFU RGS16 (11720944_at) / Fold change /veh RGS16 (11720944_at) / RFU, VPS4B / Fold change vs veh, VPS4B / RFU, CREB1 / Fold change vs veh, CREB1 / RFU, DNAJC13 / Fold change vs veh, DNAJC13 / RFU, GNAQ / Fold change vs veh, GNAQ / RFU, CDK5R1 / Fold change vs veh, CDK5R1 / RFU, ZRANB3 / Fold change vs veh, ZRANB3 / RFU, CUL4A / Fold change vs veh, CUL4A / RFU, CCNY / Fold change vs veh, CCNY / RFU, UFL1 / Fold change vs veh, UFL1 / RFU, COG3 / Fold change vs veh, COG3 / RFU, DIAPH2 / Fold change vs veh, DIAPH2 / RFU, SKA2 / Fold change vs veh, SKA2 / RFU, AFF3 / Fold change vs veh, AFF3 / RFU, LMF1 / Fold change vs veh, LMF1 / RFU, IPO11 / Fold change vs veh, IPO11 / RFU, DFFB / Fold change vs veh, DFFB / RFU, FOXP1 / Fold change vs veh, FOXP1 / RFU, CARD8 / Fold change vs veh, CARD8 / RFU, STRN3 / Fold change vs veh, STRN3 / RFU, ADK / Fold change vs veh, ADK / RFU, RASSF2 / Fold change vs veh, RASSF2 / RFU, WIPF1 / Fold change vs veh, WIPF1 / RFU, LARP1B / Fold change vs veh, LARP1B / RFU, RASA1 / Fold change vs veh, RASA1 / RFU, RB1 / Fold change vs veh, RB1 / RFU, PPFIA1 / Fold change vs veh, PPFIA1 / RFU, MAT2A / Fold change vs veh, MAT2A / RFU, CCT5 / Fold change vs veh, CCT5 / RFU, WDR92 / Fold change vs veh, WDR92 / RFU, CUX1 / Fold change vs veh, CUX1 / RFU, TTC7A / Fold change vs veh, TTC7A / RFU, TMEM135 / Fold change vs veh, TMEM135 / RFU, DEPTOR / Fold change vs veh, DEPTOR / RFU, CPM / Fold change vs veh, CPM / RFU, DNAJB6 / Fold change vs veh, DNAJB6 / RFU, CACNA2D3 / Fold change vs veh, CACNA2D3 / RFU, DTX4 / Fold change vs veh, DTX4 / RFU, TFCP2 / Fold change vs veh, TFCP2 / RFU, GMCL1 /// GMCL1P1 / Fold change vs veh, GMCL1 /// GMCL1P1 / RFU, AEBP2 / Fold change vs veh, AEBP2 / RFU, SNHG1 /// SNORD22 /// SNORD25 /// SNORD26 /// SNORD27 /// SNORD28 /// SNORD29 /// SNORD31 / Fold change vs veh, SNHG1 /// SNORD22 /// SNORD25 /// SNORD26 /// SNORD27 /// SNORD28 /// SNORD29 /// SNORD31 / Fold change (Aza/veh), C12orf56 (ProbeSet 11735607_a_at) / Fold change (ACY-1035/veh), C12orf56 (ProbeSet 11735607_a_at) / Fold change (Aza/veh), FGFR1OP (ProbeSet 11751329_s_at) / Fold change (ACY-1035/veh), FGFR1OP (ProbeSet 11751329_s_at) / Fold change (Aza/veh), VPS36 (ProbeSet 11739960_a_at) / Fold change (ACY-1035/veh), VPS36 (ProbeSet 11739960_a_at) / RFU SYPL1 (11715823_x_at) / Fold change /veh SYPL1 (11715823_x_at) / RFU IGFBP7 (11715501_s_at) / Fold change /veh IGFBP7 (11715501_s_at) / RFU REEP3 (11722064_at) / Fold change /veh REEP3 (11722064_at) / RFU IGLL1 (11728026_x_at) / Fold change /veh IGLL1 (11728026_x_at): dose or concentration left out as unconfirmed
# Conditions: MV-4-11 cells, 48 hours
compound,measurement,value
Nc1ccc(-c2cccs2)cc1NC(=O)c1ccc2c(c1)cc(C1CC1)n2CCN1CCOCC1 [ACY-1035],Fold change /veh SYPL1 (11715823_x_at),0.54
